The assay deals with T1, hMCHR1 (Homo sapiens, UniProt Q99705).
T1 construct: expressed in transfected cells; host or cells: HEK293
As to the kind of experiment: MCHR1 pIC50 determination FLIPR assay (calcium response to MCH challenge). Type of assay: cell-based. The settings on record: HEK293 cells stably transfected with hMCHR1; MCH challenge at 4XEC50. The method, then: MCHR^1 pIC50 Determination FLIPR™ Assay: HEK293 cells stably transfected with hMCHR1 were propagated as adherent cultures at 37° C. in a humidified incubator. Cells were split 1:8 at 90% confluency two times per week. New cell stocks were recovered from storage every two months. Cells were plated in black 384-well plates (Greiner) 24 hours prior to assay at 15,000 cells/well in 50 μL DMEM/F12, 10% FBS, 2 mM I-glutamine. Compounds to be profiled were prepared by making a stock solution at 3×10^−3M in 100% DMSO. The stock solutions were serially diluted 1:4 in 100% DMSO using JANUS (PerkinElmer) liquid handling instrument to allow for an 11 point curve in singlicate. At the time of the assay, the media was removed from the cell plate by aspiration, followed by the addition of 20 μL of loading buffer (Calcium 4 Kit, […]). Following 50 min incubation at 37° C., 10 μL of compound was added to the plates via the FLIPR™ instrument ([…]). The plates were incubated at room temperature for 15 minutes along with an MCH peptide agonist challenge plate. […] The amount of luciferase generated was quantified in a TopCount (PerkinElmer Packard) at 19.8° C. in SPC (single photon counting) mode with a 5 second count/well and subjected to a nonlinear regression analysis curve fitting program to generate pIC50s.

T1 sequence (Q99705 whole entry): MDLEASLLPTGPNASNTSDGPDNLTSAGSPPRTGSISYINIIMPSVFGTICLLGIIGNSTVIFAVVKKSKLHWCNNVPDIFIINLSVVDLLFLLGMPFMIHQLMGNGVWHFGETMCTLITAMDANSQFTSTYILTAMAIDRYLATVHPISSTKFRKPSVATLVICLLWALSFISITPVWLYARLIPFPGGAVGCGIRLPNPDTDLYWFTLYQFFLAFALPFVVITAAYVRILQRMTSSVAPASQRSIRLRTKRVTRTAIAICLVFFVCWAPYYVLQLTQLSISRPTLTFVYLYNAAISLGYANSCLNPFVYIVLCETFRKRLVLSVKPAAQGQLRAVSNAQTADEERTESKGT

What is called IC50 is the concentration at which inhibition is half-maximal. With `CNC1C2CN(c3ccc(-n4ccc(OCc5ccc(Cl)cn5)cc4=O)cn3)CC21` (centres unmarked) [Example 14], the IC50 was determined as 45 nM.

As for `O=c1cc(OCc2ccc(Cl)cn2)ccn1-c1ccc(N2CC3CONC3C2)nc1` (centres unmarked) [Example 16], the half-inhibitory concentration (IC50) was 56 nM.

The record behind these values is patent US20120077795A1, “BIS-PYRIDYLPYRIDONES AS MELANIN-CONCENTRATING HORMONE RECEPTOR 1 ANTAGONISTS” (GLAXSMITHKLINE LLC, priority 2009, published 2012).
